Results taken from patent publication US20220281848A1, “PYRAZOLE-SUBSTITUTED PYRROLIDINONES AS HERBICIDES” (FMC Corporation, priority 2019, published 2022).

What was measured:
Type in all cases: in vivo
[1] = test system: giant foxtail (Setaria faberi, SETFA); experiment: Test A pre-emergence, giant foxtail; conditions: after 13 d
How it was run: (§1)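 Seeds were sown in standard soil in pots, kept one day in a glasshouse (24/16° C. day/night, 14 h light, 65% humidity), then sprayed with compound in acetone/water (50:50) containing 0.5% Tween 20 at 15.625, 62.5 or 250 g/ha. Plants grew on under the same conditions, watered twice daily, and damage was scored after 13 d (0 = none, 100 = total).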

[2] = test system: velvetleaf (Abutilon theophrasti, ABUTH); experiment: Test A pre-emergence, velvetleaf; conditions: after 13 d
How it was run: as §1

[3] = test system: corn (Zea mays, ZEAMX); experiment: Test A post-emergence, corn; conditions: after 13 d
How it was run: (§2)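 Plants sown in standard soil were grown 8 d in a glasshouse (24/16 °C day/night, 14 h light, 65% humidity), then sprayed with compound in acetone/water (50:50) with 0.5% Tween 20 at 15.625, 62.5 or 250 g/ha. Damage was scored after 13 d (0 = none, 100 = total).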

[4] = test system: giant foxtail (Setaria faberi, SETFA); experiment: Test A post-emergence, giant foxtail; conditions: after 13 d
How it was run: as §2

[5] = test system: barnyardgrass (Echinochloa crus-galli, ECHCG); experiment: Test A post-emergence, barnyardgrass; conditions: after 13 d
How it was run: as §2

[6] = test system: ivy-leaved morning glory (Ipomoea hederacea, IPOHE); experiment: Test A post-emergence, ivy-leaved morning glory; conditions: after 13 d
How it was run: as §2

[7] = test system: wheat; experiment: Test D pre-emergence, wheat seed treated with a herbicide safener; conditions: 100=total damage, 0=no damage
Protocol: A formulation containing 50 g/L of the test chemical was prepared by dissolving the active ingredient in a mixture of organic solvents and emulsifier, details of which are provided in the table. This formulation was then mixed with a small, variable amount of acetone to aid dissolution, before addition of a 0.2% v/v aqueous solution of an adjuvant, as the aqueous diluent, to form an aqueous spray solution which contains a predetermined concentration of the active ingredient.
This aqueous spray solution was then sprayed onto plants including maize and wheat that had been seed treated with a herbicide safener, after one day's cultivation (for pre-emergence) or after about 12 days' cultivation (for post-emergence). The plants were grown from seeds sown in standard soil, placed in a glasshouse under controlled conditions (at 24/18° C. or 20/16° C., day/night; 16 h light; 65% humidity). After spray application the plants were then grown in a glasshouse under the same conditions and watered twice daily. After 15 d for post-emergence and 20 DAA for pre-emergence the test was evaluated (100=total damage to plant; 0=no damage to plant).

CN1CC(c2cc(C(F)(F)F)n(C)n2)C(C(=O)Nc2ccc(F)c(F)c2F)C1=O (racemic) [Compound 17]
damage to plant (100=total damage; 0=no damage) SETFA ([1]; Pre-Emergence at 15.625 g/ha): 90 | damage to plant (100=total damage; 0=no damage) SETFA ([1]; Pre-Emergence at 62.5 g/ha): 90 | damage to plant (100=total damage; 0=no damage) SETFA ([1]; Pre-Emergence at 250 g/ha): 90 | damage to plant (100=total damage; 0=no damage) ABUTH ([2]; Pre-Emergence at 15.625 g/ha): 0 | damage to plant (100=total damage; 0=no damage) ABUTH ([2]; Pre-Emergence at 62.5 g/ha): 0 | damage to plant (100=total damage; 0=no damage) ABUTH ([2]; Pre-Emergence at 250 g/ha): 10 | damage to plant (100=total damage; 0=no damage) ZEAMX ([3]; Post-Emergence at 15.625 g/ha): 10 | damage to plant (100=total damage; 0=no damage) ZEAMX ([3]; Post-Emergence at 62.5 g/ha): 50 | damage to plant (100=total damage; 0=no damage) ZEAMX ([3]; Post-Emergence at 250 g/ha): 80 | damage to plant (100=total damage; 0=no damage) SETFA ([4]; Post-Emergence at 15.625 g/ha): 60 | damage to plant (100=total damage; 0=no damage) SETFA ([4]; Post-Emergence at 62.5 g/ha): 70 | damage to plant (100=total damage; 0=no damage) SETFA ([4]; Post-Emergence at 250 g/ha): 80 | damage to plant (100=total damage; 0=no damage) ECHCG ([5]; Post-Emergence at 15.625 g/ha): 60 | damage to plant (100=total damage; 0=no damage) ECHCG ([5]; Post-Emergence at 62.5 g/ha): 70 | damage to plant (100=total damage; 0=no damage) ECHCG ([5]; Post-Emergence at 250 g/ha): 80 | damage to plant (100=total damage; 0=no damage) IPOHE ([6]; Post-Emergence at 15.625 g/ha): 0 | damage to plant (100=total damage; 0=no damage) IPOHE ([6]; Post-Emergence at 62.5 g/ha): 0 | damage to plant (100=total damage; 0=no damage) IPOHE ([6]; Post-Emergence at 250 g/ha): 0 | damage to plant, TRZAW ([7]; rate 15, 20 DAA): 0 | damage to plant, TRZAW ([7]; rate 30, 20 DAA): 0 | damage to plant, TRZAW ([7]; rate 60, 20 DAA): 0 | damage to plant, TRZAW ([7]; rate 130, 20 DAA): 50 | damage to plant, TRZAW ([7]; rate 250, 20 DAA): 60 | damage to plant, TRZAW ([7]; rate 500, 20 DAA): 90

CCn1nc([C@H]2CN(C)C(=O)[C@@H]2C(=O)Nc2cccc(F)c2F)c2cc(F)ccc21 [Compound 8]
damage to plant (100=total damage; 0=no damage) SETFA ([1]; Pre-Emergence at 15.625 g/ha): 80 | damage to plant (100=total damage; 0=no damage) SETFA ([1]; Pre-Emergence at 62.5 g/ha): 90 | damage to plant (100=total damage; 0=no damage) SETFA ([1]; Pre-Emergence at 250 g/ha): 90 | damage to plant (100=total damage; 0=no damage) ABUTH ([2]; Pre-Emergence at 15.625 g/ha): 0 | damage to plant (100=total damage; 0=no damage) ABUTH ([2]; Pre-Emergence at 62.5 g/ha): 0 | damage to plant (100=total damage; 0=no damage) ABUTH ([2]; Pre-Emergence at 250 g/ha): 0 | damage to plant (100=total damage; 0=no damage) ZEAMX ([3]; Post-Emergence at 15.625 g/ha): 20 | damage to plant (100=total damage; 0=no damage) ZEAMX ([3]; Post-Emergence at 62.5 g/ha): 60 | damage to plant (100=total damage; 0=no damage) ZEAMX ([3]; Post-Emergence at 250 g/ha): 80 | damage to plant (100=total damage; 0=no damage) SETFA ([4]; Post-Emergence at 15.625 g/ha): 70 | damage to plant (100=total damage; 0=no damage) SETFA ([4]; Post-Emergence at 62.5 g/ha): 70 | damage to plant (100=total damage; 0=no damage) SETFA ([4]; Post-Emergence at 250 g/ha): 80 | damage to plant (100=total damage; 0=no damage) ECHCG ([5]; Post-Emergence at 15.625 g/ha): 60 | damage to plant (100=total damage; 0=no damage) ECHCG ([5]; Post-Emergence at 62.5 g/ha): 70 | damage to plant (100=total damage; 0=no damage) ECHCG ([5]; Post-Emergence at 250 g/ha): 80 | damage to plant (100=total damage; 0=no damage) IPOHE ([6]; Post-Emergence at 15.625 g/ha): 20 | damage to plant (100=total damage; 0=no damage) IPOHE ([6]; Post-Emergence at 62.5 g/ha): 0 | damage to plant (100=total damage; 0=no damage) IPOHE ([6]; Post-Emergence at 250 g/ha): 30 | damage to plant, TRZAW ([7]; rate 15, 20 DAA): 0 | damage to plant, TRZAW ([7]; rate 30, 20 DAA): 0 | damage to plant, TRZAW ([7]; rate 60, 20 DAA): 0 | damage to plant, TRZAW ([7]; rate 130, 20 DAA): 0 | damage to plant, TRZAW ([7]; rate 250, 20 DAA): 0 | damage to plant, TRZAW ([7]; rate 500, 20 DAA): 0

CN1CC(c2cc(Cl)n(C)n2)C(C(=O)Nc2ccc(F)c(F)c2F)C1=O (racemic) [Compound 31]
damage to plant (100=total damage; 0=no damage) SETFA ([1]; Pre-Emergence at 15.625 g/ha): 40 | damage to plant (100=total damage; 0=no damage) SETFA ([1]; Pre-Emergence at 62.5 g/ha): 80 | damage to plant (100=total damage; 0=no damage) SETFA ([1]; Pre-Emergence at 250 g/ha): 80 | damage to plant (100=total damage; 0=no damage) ABUTH ([2]; Pre-Emergence at 15.625 g/ha): 0 | damage to plant (100=total damage; 0=no damage) ABUTH ([2]; Pre-Emergence at 62.5 g/ha): 0 | damage to plant (100=total damage; 0=no damage) ABUTH ([2]; Pre-Emergence at 250 g/ha): 0 | damage to plant (100=total damage; 0=no damage) ZEAMX ([3]; Post-Emergence at 15.625 g/ha): 0 | damage to plant (100=total damage; 0=no damage) ZEAMX ([3]; Post-Emergence at 62.5 g/ha): 0 | damage to plant (100=total damage; 0=no damage) ZEAMX ([3]; Post-Emergence at 250 g/ha): 0 | damage to plant (100=total damage; 0=no damage) SETFA ([4]; Post-Emergence at 15.625 g/ha): 40 | damage to plant (100=total damage; 0=no damage) SETFA ([4]; Post-Emergence at 62.5 g/ha): 80 | damage to plant (100=total damage; 0=no damage) SETFA ([4]; Post-Emergence at 250 g/ha): 80 | damage to plant (100=total damage; 0=no damage) ECHCG ([5]; Post-Emergence at 15.625 g/ha): 50 | damage to plant (100=total damage; 0=no damage) ECHCG ([5]; Post-Emergence at 62.5 g/ha): 80 | damage to plant (100=total damage; 0=no damage) ECHCG ([5]; Post-Emergence at 250 g/ha): 80 | damage to plant (100=total damage; 0=no damage) IPOHE ([6]; Post-Emergence at 15.625 g/ha): 20 | damage to plant (100=total damage; 0=no damage) IPOHE ([6]; Post-Emergence at 62.5 g/ha): 30 | damage to plant (100=total damage; 0=no damage) IPOHE ([6]; Post-Emergence at 250 g/ha): 40 | TRZAW damage rating ([7]; Rates 15, 20 DAA): 0 | TRZAW damage rating ([7]; Rates 30, 20 DAA): 0 | damage to plant, TRZAW ([7]; rate 60, 20 DAA): 0 | damage to plant, TRZAW ([7]; rate 130, 20 DAA): 0 | damage to plant, TRZAW ([7]; rate 250, 20 DAA): 0 | damage to plant, TRZAW ([7]; rate 500, 20 DAA): 0
